Results published in patent US8349801B2, “Peptide ligands for G-protein coupled receptors” (priority 2006, dated 2013).
No end group written: not given here.

Test system: Isoproterenol induced rats
Test: Cardiac remodeling induced by Isoproterenol
Assay type: in vivo, Wistar rats
Settings: 1 ug/hour/Kg osmotic minipump, partial data
Protocol: The effect of the peptides […] (SEQ ID NO:10), […]-dimer ([…]) (SEQ ID […]), P33_V (SEQ ID NO:7), P33-dimer (P33_D) (SEQ ID NO:6) on cardiac remodeling, was tested by determining their effect on heart hypertrophy and fibrosis (deposition of collagen I, III, and fibronectin) induced by Isoproterenol. Losartan (an antagonist of the known angiotensin II receptor, AT1, Kucharewicz et al., 2002; Hypertension, (40): 774-779) was used as positive control. The negative control group was treated with vehicle only. Additional control groups included rats not-treated with isoproterenol which were treated with the peptides, with Losartan or with the vehicle. The analysis included determination of the left ventricle mass and morphometry. In addition, immunofuorescence analysis of fibronectin and collagens I and III deposition was performed by confocal microscopy. Animals Acclimatization: Male Wistar rats Age: 13-14 weeks (250 to 300 g) were maintained in the animal facilities for 7 days before the beginning of the experiment. The animals were exposed to a brightness circle of light-dark cycle of 12 hs (day-06:00 to 18:00; night-18:00 to 06:00), and the room temperature was kept at 23±2° C. Heart failure was induced by daily injections of isoproterenol (2 mg/kg/day, subcutaneously) during 7 days. […] Immunofluorescence-labeling and quantitative confocal microscopy was used to investigate the distribution and quantity of collagen types I, III and fibronectin present in the left ventricles. […] Optimal confocal settings (aperture, gain and laser power) were determined at the beginning of each imaging session and then held constant during the analysis of all the samples. […] For quantitative analysis of collagens I, III, and fibronectin, the ImageTool 2.0 image analysis program was used ([…].edu/[…]) to measure the fluorescence intensity in images randomly selected. […]

“FLGYCIYLNRKRRGDPAFKRRLRD (also: dimer via cysteine; listed as Homo sapiens) [Peptide P61_dimer]” was tested, and the “effect as measured by Fibronectin deposition” value (3 out of 6 animals) was “not significant” and the “heart hypertrophy induced by Isoproterenol, as indicated by deposition of fibronectin, Collagen I and Collagen III” value (3 out of 6 animals of each group) was “effective in reducing the heart hypertrophy”.
